Results as given in patent US20100297156A1, “ANALOGUES OF PHOSPHATIDYLINOSITOL MANNOSIDES” (INDUSTRIAL RESEARCH LIMITED, priority 2006, published 2010).

Tests used:
[1] = system: mouse dendritic cells (DC); test: IL-12 induction in in vitro mouse dendritic cell (DC) assay, IL-12 ELISA; type: cell-based; settings: 50 μg of each compound; supernatants collected 48 hours after stimulation
Experimental: Bone marrow contents of C57BU6 mice were obtained from the femurs, by flushing the inside of the bones with media (see below). Cells were then incubated in complete medium with 0.2 U/mI of recombinant GM-CSF and 200 U/ml of recombinant IL-4 (Both from Serotec, Oxford, UK), replenished daily. After 3-4 days, fresh media and cytokines were added to cells. Cells were harvested after 7-10 days of culture, washed three times and adjusted to desired cell numbers. When harvested, cells were more than 95% DCs based on the following: DCs lacked B and T cells markers had high expression of MHC class 2 and class 1 (Serotec), and had low expression of CD11a (Serotec) and CD14 (Serotec), and expressed CD11c (Serotec). […]
(§1) Plates (Maxisorp, Nunc, Denmark) were coated with 8 μg/ml anti-IL-12 (B @ D Pharmaceuticals) and incubated overnight at room temperature. […] Following the final washing step, TMB substrate was added, the reaction was stopped by the addition of H2SO4, and the absorbance values were read at 450 nm.
IL-10 and IL-12 inducing activities of compounds 1.9, 2.5, 3.5, 4,6, 5.3, 6.2, 7.10, 8.6, 9.2, and 10.3 were tested in an in vitro mouse dendritic cell (DC) assay (FIG. 2). […] Supernatants were collected 48 hours after stimulation, and IL-12 and IL-10 levels measured.

[2] = system: bovine dendritic cells (DC); test: IL-12 induction in in vitro bovine dendritic cell (DC) assay, IL-12 ELISA; type: cell-based; settings: 50 μg of each compound; supernatants collected 48 hours after stimulation
Experimental: Peripheral blood mononuclear cells (PBMCs) were isolated from heparinized blood of cattle by density-gradient centrifugation. Cells were adjusted to 10^7/ml in RPMI-1640 medium containing 10% heat-inactivated FCS, 10 mM HEPES, 5×10^−5 M 2-mercaptoethanol. Non-adherent cells were removed after 3 hours by washing with warm phosphate buffered saline (PBS). Adherent cells were then incubated in complete medium with 0.2 U/mI of recombinant bovine GM-CSF and 200 U/ml of recombinant bovine IL-4 (Both from Serotec, Oxford, UK), replenished daily. After 3-4 days, fresh media and cytokines were added to cells. Cells were harvested after 7-10 days of culture, washed three times and adjusted to desired cell numbers. […]
as §1
Th1 inducing activities of compounds 1.9 and 2.5 were tested in an in vitro bovine dendritic cell (DC) assay (FIG. 1). […] Supernatants were collected 48 hours after stimulation, and IL-12 levels measured.

Row | Compound | Induction of IL-12 on mouse dendritic cells [1] | Induction of IL-12 on bovine dendritic cells [2]
1 | CCCCCCCCCCCCCCCCO[C@H](COC(=O)CCCCCCCCCCCCCCC)COP(=O)(O)O[C@@H]1C(O[C@H]2OC(CO)[C@@H](O)[C@H](O)C2O)C(O)[C@@H](O)[C@H](O)C1O[C@H]1OC(CO)[C@@H](O)C(O)[C@H]1O (stereo partly drawn) [Compound 1.9, 2,6-(Di-O-α-D-mannopyranosyl)-1-O-(1-O-hexadecanoyl-2-O-hexadecyl-sn-glycero-3-phosphoryl)-D-myo-inositol] | the most potent inducing more IL-12 than the positive controls MPL and PAMCSK | very high levels of IL-12
2 | CCCCCCCCCCCCCCCCOC[C@H](COP(=O)(O)O[C@@H]1C(O[C@H]2OC(CO)[C@@H](O)[C@H](O)C2O)C(O)[C@@H](O)[C@H](O)C1O[C@H]1OC(CO)[C@@H](O)C(O)[C@H]1O)OC(=O)CCCCCCCCCCCCCCC (stereo partly drawn) [Compound 4.6, 2,6-(Di-O-α-D-mannopyranosyl)-1-O-(2-hexadecanoyl-1-O-hexadecyl-sn-glycero-3-phosphoryl)-D-myo-inositol] | the most potent inducing more IL-12 than the positive controls MPL and PAMCSK | 
